# Literature values as cited in patent publication US6884908B2, “Process for isolation of hepatoprotective agent “oleanolic acid” from Lantana camera” (Council of Scientific & Industrial Research, priority 2003, dated 2005).
# Tests used:
# [1] = system: azoxymethane-induced intestinal tumor; conditions: rats, 200 ppm in diet for 3 weeks
# [2] = system: CCl4-induced liver parenchymal cell necrosis, steatosis and degeneration; conditions: in vivo
# [3] = system: paw edema produced by dextran; conditions: rats and mice
# [4] = system: adjuvant induced arthritis; conditions: rats and mice
# [5] = system: experimental hyperlipidemic rats; conditions: 50 mg/kg, P.O. for 9 days
compound,measurement,setting,value
"CC1(C)CC[C@]2(C(=O)O)CC[C@]3(C)C(=CC[C@@H]4[C@@]5(C)CC[C@H](O)C(C)(C)[C@@H]5CC[C@]43C)[C@@H]2C1 [oleanolic acid, (3-O-β-hydroxy-olea-12-en-28-oic acid]",incidence and multiplicity of azoxymethane-induced intestinal tumor,[1],decreases the incidence and multiplicity
same,"CCl4-induced liver parenchymal cell necrosis, steatosis and degeneration",[2],decreases
same,paw edema produced by dextran,[3],inhibiting
same,adjuvant induced arthritis,[4],suppressing
same,decrease of elevated blood cholesterol level,[5],more than 40%
same,decrease of elevated β-lipoprotein level,[5],more than 40%
